Experimental data taken from patent US7875607B2, “7,8-bicycloakyl-chroman derivatives” (Ampere Life Sciences, Inc., priority 2004, dated 2011).

Key:
[1] = tested on: LTB4 production in heparinized whole blood; experiment: Inhibition of LTB4 production in blood; type: cell-based, rat or mouse; conditions: 20 μM A23187, read-out: EC50, protection against LTB4
How it was run: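 Heparinized rat or mouse whole blood preincubated with test agent 10 min at 37°C, then stimulated with calcium ionophore A23187 (20 μM final) for 30 min. Plasma methanol-precipitated and LTB4 measured by EIA; percent inhibition versus vehicle used to derive IC50.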

[2] = biological target: T1, human recombinant 5-lipoxygenase (Homo sapiens, UniProt P09917); experiment: 5-Lipoxygenase enzyme assay; type: biochemical; conditions: 70 μM arachidonic acid, pH 7.4
T1 construct: purchased Cayman 60402
T1 sequence (P09917 1-674): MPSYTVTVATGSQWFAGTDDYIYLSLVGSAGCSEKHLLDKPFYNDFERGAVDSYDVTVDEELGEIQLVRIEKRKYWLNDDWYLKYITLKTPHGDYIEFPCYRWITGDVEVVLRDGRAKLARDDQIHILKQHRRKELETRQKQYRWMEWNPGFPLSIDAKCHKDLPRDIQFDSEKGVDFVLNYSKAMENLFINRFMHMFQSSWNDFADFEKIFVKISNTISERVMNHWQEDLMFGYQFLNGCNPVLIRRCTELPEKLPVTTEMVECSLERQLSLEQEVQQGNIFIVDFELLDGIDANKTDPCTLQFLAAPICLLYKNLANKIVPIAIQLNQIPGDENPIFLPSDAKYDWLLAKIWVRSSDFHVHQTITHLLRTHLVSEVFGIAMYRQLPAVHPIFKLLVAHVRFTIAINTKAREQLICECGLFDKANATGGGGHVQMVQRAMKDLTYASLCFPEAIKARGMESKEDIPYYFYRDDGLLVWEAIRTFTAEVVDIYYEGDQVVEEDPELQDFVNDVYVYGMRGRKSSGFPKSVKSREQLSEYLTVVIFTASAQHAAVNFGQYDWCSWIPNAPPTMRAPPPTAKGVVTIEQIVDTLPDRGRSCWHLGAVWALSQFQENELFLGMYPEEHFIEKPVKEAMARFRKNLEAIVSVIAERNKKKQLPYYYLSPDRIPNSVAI
How it was run: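 Human recombinant 5-LO (0.5 U) with compound in 50 mM Tris-HCl pH 7.4 reacted with 70 μM arachidonic acid for 10 min at room temperature. Hydroperoxide formation was read via FOX xylenol orange complex at 620 nm after 1 h; compounds at 5 concentrations from 10 μM, in triplicate.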

[3] = biological target: T2, porcine leukocyte 12/15-lipoxygenase (Sus scrofa, UniProt P16469); experiment: 12/15-Lipoxygenase enzyme assay; type: biochemical; conditions: 70 μM arachidonic acid, pH 7.4; read-out: IC50, inhibition of 12/15-Lipoxygenase
T2 sequence (P16469 1-663): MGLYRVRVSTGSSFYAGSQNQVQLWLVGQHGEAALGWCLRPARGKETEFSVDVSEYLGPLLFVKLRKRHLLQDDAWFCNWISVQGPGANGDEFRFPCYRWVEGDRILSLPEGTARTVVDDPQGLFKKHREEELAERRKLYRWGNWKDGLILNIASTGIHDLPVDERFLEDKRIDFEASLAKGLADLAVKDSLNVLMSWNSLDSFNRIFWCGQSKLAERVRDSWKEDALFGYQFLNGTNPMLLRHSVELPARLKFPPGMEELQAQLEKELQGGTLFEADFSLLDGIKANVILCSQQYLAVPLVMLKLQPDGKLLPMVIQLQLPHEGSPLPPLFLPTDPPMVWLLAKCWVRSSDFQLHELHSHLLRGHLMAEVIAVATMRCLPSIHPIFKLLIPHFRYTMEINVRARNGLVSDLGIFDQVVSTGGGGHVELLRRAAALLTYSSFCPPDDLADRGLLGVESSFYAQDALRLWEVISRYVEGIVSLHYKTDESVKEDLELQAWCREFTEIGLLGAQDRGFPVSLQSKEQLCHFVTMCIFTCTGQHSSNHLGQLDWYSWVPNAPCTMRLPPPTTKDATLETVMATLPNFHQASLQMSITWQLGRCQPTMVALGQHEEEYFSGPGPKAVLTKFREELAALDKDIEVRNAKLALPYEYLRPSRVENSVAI
Protocol: This procedure was used for measuring the enzymatic activity of porcine leukocyte 12/15-lipoxygenase using a calorimetric method based on the ferric oxidation of xylenol orange.
Porcine Leukocyte 12/15-lipoxygenase (Cayman Cat # 60300) was used in this assay. Test compound and/or vehicle was added to 1.3U 12/15-lipoxygenase in 50 mM Tris-HCl buffer, pH 7.4. The reaction was initiated by addition of 70 μM arachidonic acid in Tris-HCl buffer, pH 7.4, and terminated after a 10 minute incubation at room temperature by addition of FOX reagent (25 mM sulphuric acid, 100 μM xylenol orange, 100 μM iron (II) sulphate, methanol:water 9:1). The yellow color of acidified xylenol orange was converted to a blue color by the lipid hydroperoxide-mediated oxidation of Fe^2+ ions and the interaction of the resulting Fe^3+ ions with the dye. The complex was allowed to form during a 1 hour incubation at room temperature with shaking. Absorbance of the Fe^3+ complex was then measured at […] using a spectrophotometer.
Negative controls contained enzyme during the incubation step but substrate was not added until after the FOX reagent.
Compounds are screened at 5 concentrations in triplicate starting at 10 μM

Row | Compound | EC50 [1] [µM] | IC50 [2] [µM] | IC50 [3] [µM]
1 | CC1(CCCCl)CCc2cc(O)c3c(c2O1)C1CCC3C1 (stereo not drawn) [2-(3-Chloro-propyl)-2-methyl-3,4,7,8,9,10-hexahydro-7,10-methano-2H-benzo[h]chromen-6-ol] | ≤ 10 | ≤ 5 | –
2 | CC1(C)C=Cc2cc(O)c3c(c2O1)C1CCC3CC1 [2,2-Dimethyl-7,8,9,10-tetrahydro-7,10-ethano-2H-benzo[h]chromen-6-ol] | – | ≤ 5 | ≤ 10
3 | CC1(C)CCc2cc(O)c3c(c2O1)C1CCC3CC1 [2,2-Dimethyl-3,4,7,8,9,10-hexahydro-7,10-ethano-2H-benzo[h]chromen-6-ol] | ≤ 10 | ≤ 5 | ≤ 10
4 | CC(C)CSCCCC1(C)CCc2cc(O)c3c(c2O1)C1CCC3C1 (stereo not drawn) [2-(3-isobutylsulfanyl-propyl)-2-methyl-3,4,7,8,9,10-hexahydro-7,10-methano-2H-benzo[h]chromen-6-ol] | ≤ 10 | – | ≤ 10
5 | CC1(CCCSc2nccs2)CCc2cc(O)c3c(c2O1)C1CCC3C1 (stereo not drawn) [2-Methyl-2-[3-(thiazol-2-ylsulfanyl)-propyl]-3,4,7,8,9,10-hexahydro-7,10-methano-2H-benzo[h]chromen-6-ol] | ≤ 10 | ≤ 5 | ≤ 10
